Measurements reported in ChEMBL document CHEMBL4507315 (2021).
The source made the active and inactive calls. No cut-off for these calls is given here.

Key:
[1] = target: Heat shock protein beta-1 (Homo sapiens, UniProt P04792); assay: Inhibition of HSP27 (Ser82) (Western blot)
[2] = tested on: Tyrosine-protein kinase ABL1 (Homo sapiens), P00519 [H396P]; conditions: Compound concentration 100.0 nM
[3] = target: Aurora kinase C (Homo sapiens) (UniProt Q9UQB9); conditions: Compound concentration 100.0 nM
[4] = target: Tyrosine-protein kinase Blk (Homo sapiens) (UniProt P51451); conditions: Compound concentration 100.0 nM
Sequence of Tyrosine-protein kinase Blk (Homo sapiens) (P51451 2-505 limits assumed): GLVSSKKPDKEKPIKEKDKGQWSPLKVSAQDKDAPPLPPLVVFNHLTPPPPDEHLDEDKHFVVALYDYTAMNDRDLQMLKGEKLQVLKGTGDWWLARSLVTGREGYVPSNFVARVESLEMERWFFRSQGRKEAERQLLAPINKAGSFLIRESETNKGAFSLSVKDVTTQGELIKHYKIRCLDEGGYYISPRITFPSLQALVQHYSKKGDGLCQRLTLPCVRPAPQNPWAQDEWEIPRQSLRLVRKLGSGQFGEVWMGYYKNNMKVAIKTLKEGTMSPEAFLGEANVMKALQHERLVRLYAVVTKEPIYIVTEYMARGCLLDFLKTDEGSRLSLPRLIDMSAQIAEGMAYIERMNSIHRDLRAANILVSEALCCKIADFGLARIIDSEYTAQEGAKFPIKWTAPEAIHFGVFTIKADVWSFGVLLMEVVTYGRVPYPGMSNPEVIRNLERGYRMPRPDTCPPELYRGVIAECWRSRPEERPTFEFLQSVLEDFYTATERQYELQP

[5] = target: Dual specificity mitogen-activated protein kinase kinase 6 (Homo sapiens) (UniProt P52564); conditions: Compound concentration 100.0 nM
Sequence of Dual specificity mitogen-activated protein kinase kinase 6 (Homo sapiens) (P52564 whole entry): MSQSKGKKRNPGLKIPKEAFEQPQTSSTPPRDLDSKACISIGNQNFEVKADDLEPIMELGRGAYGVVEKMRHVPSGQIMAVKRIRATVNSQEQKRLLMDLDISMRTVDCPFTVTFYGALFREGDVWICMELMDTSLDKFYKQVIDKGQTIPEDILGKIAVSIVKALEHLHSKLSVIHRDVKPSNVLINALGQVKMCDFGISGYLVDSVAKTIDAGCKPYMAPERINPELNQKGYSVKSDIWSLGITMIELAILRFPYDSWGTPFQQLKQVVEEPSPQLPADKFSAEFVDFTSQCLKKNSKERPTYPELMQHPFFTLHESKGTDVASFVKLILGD

[6] = target: Tyrosine-protein kinase Mer (Homo sapiens) (UniProt Q12866); conditions: Compound concentration 100.0 nM
[7] = target: Hepatocyte growth factor receptor (Homo sapiens) (UniProt P08581); conditions: Compound concentration 100.0 nM
[8] = tested on: Hepatocyte growth factor receptor (Homo sapiens), P08581 [M1250T]; conditions: Compound concentration 100.0 nM
[9] = target: Serine/threonine-protein kinase Nek1 (Homo sapiens) (UniProt Q96PY6); conditions: Compound concentration 100.0 nM
[10] = target: Serine/threonine-protein kinase PAK 3 (Homo sapiens) (UniProt O75914); conditions: Compound concentration 100.0 nM
Sequence of Serine/threonine-protein kinase PAK 3 (Homo sapiens) (O75914 whole entry, looked up): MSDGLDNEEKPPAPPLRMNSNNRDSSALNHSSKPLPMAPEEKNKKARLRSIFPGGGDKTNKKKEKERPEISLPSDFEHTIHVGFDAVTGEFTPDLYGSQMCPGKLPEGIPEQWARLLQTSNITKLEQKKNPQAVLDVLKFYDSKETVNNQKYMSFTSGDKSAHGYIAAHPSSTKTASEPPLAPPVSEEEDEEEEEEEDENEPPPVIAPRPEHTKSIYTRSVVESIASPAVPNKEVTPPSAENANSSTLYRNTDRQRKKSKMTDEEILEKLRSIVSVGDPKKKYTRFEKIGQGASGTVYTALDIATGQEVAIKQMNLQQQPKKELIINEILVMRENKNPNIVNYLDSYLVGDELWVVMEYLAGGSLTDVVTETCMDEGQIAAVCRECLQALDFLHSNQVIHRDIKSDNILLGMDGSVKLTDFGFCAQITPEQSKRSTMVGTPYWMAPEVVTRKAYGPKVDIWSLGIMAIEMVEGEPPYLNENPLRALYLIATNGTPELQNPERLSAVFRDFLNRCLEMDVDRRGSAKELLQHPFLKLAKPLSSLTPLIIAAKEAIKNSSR

[11] = target: Cyclin-dependent kinase 18 (Homo sapiens) (UniProt Q07002); conditions: Compound concentration 100.0 nM
[12] = target: Phosphorylase b kinase regulatory subunit alpha, liver isoform (Homo sapiens) (UniProt P46019); conditions: Compound concentration 100.0 nM
Sequence of Phosphorylase b kinase regulatory subunit alpha, liver isoform (Homo sapiens) (P46019 whole entry, canonical isoform): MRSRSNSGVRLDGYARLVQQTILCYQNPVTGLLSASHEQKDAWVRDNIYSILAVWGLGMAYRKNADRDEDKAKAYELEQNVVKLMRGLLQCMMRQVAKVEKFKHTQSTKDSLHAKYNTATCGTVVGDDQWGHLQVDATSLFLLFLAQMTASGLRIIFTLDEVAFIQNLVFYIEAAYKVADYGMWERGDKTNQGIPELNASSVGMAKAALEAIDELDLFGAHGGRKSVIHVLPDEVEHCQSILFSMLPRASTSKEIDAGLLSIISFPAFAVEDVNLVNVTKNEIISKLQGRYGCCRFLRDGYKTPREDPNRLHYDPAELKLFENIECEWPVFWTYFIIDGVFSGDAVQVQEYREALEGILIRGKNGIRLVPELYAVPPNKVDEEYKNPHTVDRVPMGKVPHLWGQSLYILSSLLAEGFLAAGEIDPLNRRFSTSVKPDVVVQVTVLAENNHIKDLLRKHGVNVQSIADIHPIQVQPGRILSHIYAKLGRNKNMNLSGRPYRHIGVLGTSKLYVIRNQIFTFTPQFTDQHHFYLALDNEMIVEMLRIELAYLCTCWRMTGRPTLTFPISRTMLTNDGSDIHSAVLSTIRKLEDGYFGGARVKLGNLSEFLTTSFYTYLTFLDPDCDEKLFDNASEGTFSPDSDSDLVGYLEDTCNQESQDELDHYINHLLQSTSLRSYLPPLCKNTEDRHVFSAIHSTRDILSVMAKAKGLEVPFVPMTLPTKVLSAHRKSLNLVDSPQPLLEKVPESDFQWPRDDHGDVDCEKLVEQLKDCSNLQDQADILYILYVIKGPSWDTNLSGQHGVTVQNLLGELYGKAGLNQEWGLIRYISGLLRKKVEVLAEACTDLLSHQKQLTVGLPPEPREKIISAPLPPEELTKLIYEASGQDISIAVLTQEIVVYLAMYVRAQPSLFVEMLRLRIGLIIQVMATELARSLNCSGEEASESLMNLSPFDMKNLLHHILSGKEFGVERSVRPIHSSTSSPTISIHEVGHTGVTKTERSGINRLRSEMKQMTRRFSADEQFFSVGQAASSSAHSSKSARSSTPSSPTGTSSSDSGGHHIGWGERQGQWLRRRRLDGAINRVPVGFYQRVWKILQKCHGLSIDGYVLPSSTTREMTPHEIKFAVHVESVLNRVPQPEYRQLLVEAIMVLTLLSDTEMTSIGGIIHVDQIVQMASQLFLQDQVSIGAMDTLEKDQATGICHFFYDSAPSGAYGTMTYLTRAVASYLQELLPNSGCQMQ

[13] = target: Serine/threonine-protein kinase pim-1 (Homo sapiens) (UniProt P11309); conditions: Compound concentration 100.0 nM
Sequence of Serine/threonine-protein kinase pim-1 (Homo sapiens) (P11309 whole entry, looked up): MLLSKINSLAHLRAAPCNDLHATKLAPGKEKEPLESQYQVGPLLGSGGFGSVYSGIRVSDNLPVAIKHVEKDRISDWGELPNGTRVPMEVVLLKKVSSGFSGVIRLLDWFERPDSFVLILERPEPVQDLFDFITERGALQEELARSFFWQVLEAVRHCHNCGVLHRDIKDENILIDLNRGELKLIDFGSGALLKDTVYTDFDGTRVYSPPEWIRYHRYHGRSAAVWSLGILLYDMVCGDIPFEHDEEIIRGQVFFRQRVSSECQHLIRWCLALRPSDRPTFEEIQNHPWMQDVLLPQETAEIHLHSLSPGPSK

[14] = target: Serine/threonine-protein kinase PRP4 homolog (Homo sapiens) (UniProt Q13523); conditions: Compound concentration 100.0 nM
Sequence of Serine/threonine-protein kinase PRP4 homolog (Homo sapiens) (Q13523 whole entry): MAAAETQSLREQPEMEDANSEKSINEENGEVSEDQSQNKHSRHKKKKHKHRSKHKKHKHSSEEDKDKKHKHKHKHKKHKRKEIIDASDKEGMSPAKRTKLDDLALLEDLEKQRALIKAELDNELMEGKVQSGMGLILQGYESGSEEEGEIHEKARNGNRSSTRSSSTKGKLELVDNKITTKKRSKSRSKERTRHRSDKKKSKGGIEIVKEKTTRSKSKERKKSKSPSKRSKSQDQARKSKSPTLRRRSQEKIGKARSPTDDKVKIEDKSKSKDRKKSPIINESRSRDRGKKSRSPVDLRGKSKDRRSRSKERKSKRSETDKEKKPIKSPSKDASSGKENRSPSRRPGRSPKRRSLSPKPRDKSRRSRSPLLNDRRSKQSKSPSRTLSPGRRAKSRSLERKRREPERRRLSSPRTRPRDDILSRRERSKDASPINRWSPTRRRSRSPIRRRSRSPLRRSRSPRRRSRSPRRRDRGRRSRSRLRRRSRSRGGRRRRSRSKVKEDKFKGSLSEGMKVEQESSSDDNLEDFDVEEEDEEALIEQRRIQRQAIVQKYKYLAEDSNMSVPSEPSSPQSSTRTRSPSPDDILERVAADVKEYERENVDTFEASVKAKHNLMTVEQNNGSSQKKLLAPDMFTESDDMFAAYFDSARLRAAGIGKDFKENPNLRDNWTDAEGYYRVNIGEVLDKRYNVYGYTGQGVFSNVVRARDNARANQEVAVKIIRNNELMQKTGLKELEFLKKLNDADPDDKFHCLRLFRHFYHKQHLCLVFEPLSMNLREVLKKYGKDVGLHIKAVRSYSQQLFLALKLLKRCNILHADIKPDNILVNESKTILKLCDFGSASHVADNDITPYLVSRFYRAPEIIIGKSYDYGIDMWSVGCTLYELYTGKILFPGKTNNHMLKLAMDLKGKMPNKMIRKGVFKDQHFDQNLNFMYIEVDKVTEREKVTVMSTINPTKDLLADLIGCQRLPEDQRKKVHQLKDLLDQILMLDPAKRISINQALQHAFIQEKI

[15] = target: Serine/threonine-protein kinase WNK3 (Homo sapiens) (UniProt Q9BYP7); conditions: Compound concentration 100.0 nM
[16] = target: Tyrosine-protein kinase Yes (Homo sapiens) (UniProt P07947); conditions: Compound concentration 100.0 nM
[17] = target: 5-hydroxytryptamine receptor 2C (Homo sapiens) (UniProt P28335); conditions: Compound concentration 10.0 uM
Rattus norvegicus = organism: Rattus norvegicus; conditions: Compound concentration 10.0 uM
[18] = target: Kappa-type opioid receptor (Homo sapiens, UniProt P41145); assay: GPCRScan assay: inhibition of KOR; parameters: radioligand conc. used [nm] 0.6 – 1.2, parental cells stable HEK
Sequence of Kappa-type opioid receptor (P41145 whole entry): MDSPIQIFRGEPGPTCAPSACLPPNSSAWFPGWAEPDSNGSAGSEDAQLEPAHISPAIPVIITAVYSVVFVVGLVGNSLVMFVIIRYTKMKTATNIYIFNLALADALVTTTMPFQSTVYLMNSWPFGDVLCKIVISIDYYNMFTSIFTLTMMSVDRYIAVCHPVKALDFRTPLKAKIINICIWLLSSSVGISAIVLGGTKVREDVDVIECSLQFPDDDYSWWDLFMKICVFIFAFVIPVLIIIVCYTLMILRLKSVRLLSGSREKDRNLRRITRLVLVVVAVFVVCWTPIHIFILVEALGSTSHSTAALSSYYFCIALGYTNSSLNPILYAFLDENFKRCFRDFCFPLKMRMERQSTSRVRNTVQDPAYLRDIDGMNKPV

Histamine H1 receptor = Histamine H1 receptor (Homo sapiens, UniProt P35367); assay: GPCRScan assay: inhibition of H1; parameters: radioligand conc. used [nm] 0.6 – 2.0, parental cells stable HEK
Sequence of Histamine H1 receptor (P35367 whole entry): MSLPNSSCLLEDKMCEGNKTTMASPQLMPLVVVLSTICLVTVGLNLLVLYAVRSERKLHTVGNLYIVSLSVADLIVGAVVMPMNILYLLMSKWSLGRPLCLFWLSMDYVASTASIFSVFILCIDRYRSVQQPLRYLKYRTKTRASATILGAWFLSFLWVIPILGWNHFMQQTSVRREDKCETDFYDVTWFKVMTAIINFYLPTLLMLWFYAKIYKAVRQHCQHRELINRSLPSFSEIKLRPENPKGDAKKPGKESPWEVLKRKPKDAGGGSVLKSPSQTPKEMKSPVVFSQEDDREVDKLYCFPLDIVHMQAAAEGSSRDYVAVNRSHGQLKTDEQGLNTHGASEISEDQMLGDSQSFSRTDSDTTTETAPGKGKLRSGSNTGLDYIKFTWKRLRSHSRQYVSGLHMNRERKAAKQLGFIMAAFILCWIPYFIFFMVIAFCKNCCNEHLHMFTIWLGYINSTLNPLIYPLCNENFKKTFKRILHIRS

[19] = target: Sigma intracellular receptor 2 (Homo sapiens, UniProt Q5BJF2); assay: GPCRScan assay: inhibition of Sigma 2; parameters: radioligand conc. used [nm] 5.0, parental cells HEKT
Sequence of Sigma intracellular receptor 2 (Q5BJF2 whole entry): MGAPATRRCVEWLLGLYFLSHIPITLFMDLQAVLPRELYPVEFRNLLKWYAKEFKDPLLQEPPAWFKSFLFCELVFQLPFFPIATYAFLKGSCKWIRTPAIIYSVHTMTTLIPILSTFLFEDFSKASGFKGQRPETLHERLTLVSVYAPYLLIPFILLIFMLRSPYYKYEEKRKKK

[20] = target: Mitogen-activated protein kinase 14 (Homo sapiens) (UniProt Q16539); conditions: Compound concentration 100.0 nM
[21] = target: D(4) dopamine receptor (Homo sapiens) (UniProt P21917); conditions: Compound concentration 10.0 uM
[22] = target: Histamine H2 receptor (Homo sapiens) (UniProt P25021); conditions: Compound concentration 10.0 uM
[23] = target: Muscarinic acetylcholine receptor M5 (Homo sapiens) (UniProt P08912); conditions: Compound concentration 10.0 uM

Compound	residual activity [2]	residual activity [3]	residual activity [4]	residual activity [5]	residual activity [6]	residual activity [7]	residual activity [8]	residual activity [9]	residual activity [10]	residual activity [11]	residual activity [12]	residual activity [13]	residual activity [14]	residual activity [15]	residual activity [16]	inhibition [17]	further results
Nc1c(C(=O)NCc2ccc(C(=O)NCCCC3CCCCC3)cc2)cnn1-c1ccccc1 [SR-318]	100%	100%	81%	79%	100%	95%	100%	84%	100%	100%	100%	93%	100%	92%	100%	10%	IC50 [1]: < 1000 nM (active); inhibition (Rattus norvegicus): 27.6%
O=C(NCCCC1CCCCC1)c1ccc(CNC(=O)c2cnn(-c3ccccc3)c2C(F)(F)F)cc1 [SR-321]	99%	100%	100%	79%	100%	100%	76%	58%	100%	100%	100%	100%	100%	100%	100%	6.21%	Ki [18]: > 10000 nM; pKi [18]: < 5; Ki (Histamine H1 receptor): > 10000 nM; pKi (Histamine H1 receptor): < 5; Ki ([19]; read-out: Ki): 2890 nM; Ki ([19]; read-out: pKi (converted)): 2820 nM; residual activity [20]: 100%; inhibition [21]: 21.7%; inhibition [22]: -2.78%; inhibition [23]: -4.46%
